From patent US10787425B2, “Thiazolidinedione derivative and use thereof” (INDUSTRY-ACADEMIC COOPERATION FOUNDATION CHOSUN UNIVERSITY, priority 2016, dated 2020)

What was measured:
15-PGDH = 15-PGDH (Homo sapiens (Human), UniProt P15428); test: 15-PGDH inhibitory activity (NADH at 340 nm); format: biochemical; settings: concentration inhibiting 50% of 15-PGDH activity; purified 15-PGDH, 21 μM PGE2, 0.25 mM NAD+
Procedure: The 15-PGDH cDNA plasmid containing the BamHI of the pGEX-2T expression vector and EcoRI restriction enzyme sites was transfected into E. coli BL-21 LysS by using conventional methods used in the art. Then, the transfected cells were cultured in an LB medium (500 ml) containing 50 μg/ml of ampicillin at a temperature of 37° C. and at a rate of 220 rpm until the OD600 reached 0.6. Then, isopropyl beta-D-thiogalactoxide (1 mM) was added and the cells were further cultured at the temperature of 25° C. for 12 hours. The cells were then centrifuged at the gravity of 4,000 g for 30 minutes at a temperature of 4° C. to collect a cell pellet. The cell pellet was dissolved in 20 ml of cell lysis buffer (containing 1×PBS buffer (pH 7.4): 1 mM EDTA and 0.1 mM DTT) and sonicated at a temperature of 4° C. for 14×10 s. The digested cells were centrifuged at the gravity of 4,000 g for 20 minutes at a temperature of 4° C. The supernatant was then slowly loaded onto a glutathione-sepharose 4B column equilibrated at a temperature of 4° C. with cell lysis buffer [containing 1×PBS buffer (pH 7.4), 1 mM EDTA, and 0.1 mM DTT]. Washing was performed thereon by using a dissolution buffer until the OD280 reached 0.005 or less. Then, 15-PGDH was eluted from the glutathione-sepharose 4B column at room temperature for 5 minutes by using an elution buffer [containing 50 mM Tris-HCl (pH 8.0), 10 mM reduced glutathione, 1 mM EDTA, and 0.1 mM DTT). The concentration of the purified enzyme was measured, and the purification level thereof was confirmed by SDS-PAGE.
That is, the cells were treated with a solution including 50 mM Tris-HCl (pH 7.5), 0.1 mM DTT, 0.25 mM (NAD+), 10 μg of purified 15-PGDH enzyme, 21 μM PGE2. and various concentrations (0.0001 μM to 64 μM) of the derivative compound according to the present disclosure. In this case, the total volume of the solution was 2 ml. Then, the absorbance of the reaction mixture was recorded at the wavelength of 340 nm. To measure the activity of the derivative compounds according to the present disclosure, which is an inhibitor of 15-PGDH, the average value of NADH absorbance at 340 nm at various concentrations was obtained from a standard curve.

A549 cells = test: Measurement of PGE2 concentration in A549 cell medium (ELISA); format: cell-based, human; settings: for Increment %: PGE2 concentration versus PBS control, 5 μM, 12 hours; for PGE2 concentration: inhibitor 5 μM, medium collected after 12 hours, ELISA
Procedure: A549 cells were subcultured in RPMI 1640 medium (containing+8% fetal bovine serum (FBS) and antibiotic-antimycotic (AA)) for one week, and then, inoculated in a 6-well plate at 2.5×10^5 cells/mL (5×10^5 cells/well) and cultured for 24 hours in a 5% CO2 incubator at a temperature of 37° C. A549 cells are adenocarcinomic human alveolar basal epithelial cells which are derived from lung tissues. When cells were grown to about 80% confluence, a 15-PGDH inhibitor in 1×PBS buffer was injected at a concentration of 5 μM. To compare the results, the same amount of 1×PBS buffer was injected into a negative control, and, the treated cells were cultured in 5% CO2 incubator. After 12 hours, the medium was collected and the collected medium was assayed to measure PGE2 concentration by using an ELISA Kit (Abcam) according to the manufacturer's instructions. The concentration may be expressed as an exact value by plotting the calibration curve by using the absorbance value after diluting the standard in the medium by concentration.

Chain of 15-PGDH (P15428 whole entry): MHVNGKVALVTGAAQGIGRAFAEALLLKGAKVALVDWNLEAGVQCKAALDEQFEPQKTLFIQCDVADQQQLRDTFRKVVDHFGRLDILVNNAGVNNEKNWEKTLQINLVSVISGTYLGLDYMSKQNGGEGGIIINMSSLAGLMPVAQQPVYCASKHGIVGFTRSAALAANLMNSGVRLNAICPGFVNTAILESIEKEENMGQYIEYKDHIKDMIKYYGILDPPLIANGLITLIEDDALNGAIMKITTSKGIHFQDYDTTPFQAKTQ

Structure (SMILES): O=C1NC(=O)/C(=C/c2ccc(OC(=O)C3CCC3)c(Br)c2)S1 [Compound 17, (Z)-2-bromo-4-((2,4-dioxothiazolidin-5-ylidene)methyl)phenyl cyclobutanecarboxylate]
- IC50 (15-PGDH): 106 nM
- Increment % (A549 cells): 56.34%
- PGE2 concentration (A549 cells): 395.597 pg/mL

Structure (SMILES): O=C1NC(=O)/C(=C/c2ccc(OC(=O)C3CCCC3)c(Br)c2)S1 [Compound 18, (Z)-2-bromo-4-((2,4-dioxothiazolidin-5-ylidene)methyl)phenyl cyclopentanecarboxylate]
- IC50 (15-PGDH): 50 nM
- Increment % (A549 cells): −21.7%
- PGE2 concentration (A549 cells): 198.1274 pg/mL

Structure (SMILES): O=C(CC1CCCC1)Oc1ccc(/C=C2\SC(=O)NC2=O)cc1Br [Compound 19, (Z)-2-bromo-4-((2,4-dioxothiazolidin-5-ylidene)methyl)phenyl 2-cyclopentylacetate]
- IC50 (15-PGDH): 19.8 nM
- Increment % (A549 cells): −8.11%
- PGE2 concentration (A549 cells): 232.5151 pg/mL

Structure (SMILES): O=C(CCC1CCCC1)Oc1ccc(/C=C2\SC(=O)NC2=O)cc1Br [Compound 20, (Z)-2-bromo-4-((2,4-dioxothiazolidin-5-ylidene)methyl)phenyl 3-cyclopentylpropanoate]
- IC50 (15-PGDH): 15.8 nM
- Increment % (A549 cells): 227.32%
- PGE2 concentration (A549 cells): 828.2384 pg/mL

Structure (SMILES): O=C1NC(=O)/C(=C/c2ccc(OC(=O)C3CCCCC3)c(Br)c2)S1 [Compound 21, (Z)-2-bromo-4-((2,4-dioxothiazolidin-5-ylidene)methyl)phenyl cyclohexanecarboxylate]
- IC50 (15-PGDH): 37.6 nM
- Increment % (A549 cells): 62.47%
- PGE2 concentration (A549 cells): 411.1081 pg/mL

Structure (SMILES): O=C(CC1CCCCC1)Oc1ccc(/C=C2\SC(=O)NC2=O)cc1Br [Compound 22, (Z)-2-bromo-4-((2,4-dioxothiazolidin-5-ylidene)methyl)phenyl 2-cyclohexylacetate]
- IC50 (15-PGDH): 20.6 nM
- Increment % (A549 cells): 89.77%
- PGE2 concentration (A549 cells): 480.187 pg/mL

Structure (SMILES): O=C(CCCC1CCCCC1)Oc1ccc(/C=C2\SC(=O)NC2=O)cc1Br [Compound 24, (Z)-2-bromo-4-((2,4-dioxothiazolidin-5-ylidene)methyl)phenyl 4-cyclohexylbutanoate]
- IC50 (15-PGDH): 15.4 nM
- Increment % (A549 cells): 299.32%
- PGE2 concentration (A549 cells): 1010.425 pg/mL

Structure (SMILES): O=C(CCCCC1CCCCC1)Oc1ccc(/C=C2\SC(=O)NC2=O)cc1Br [Compound 25, (Z)-2-bromo-4-((2,4-dioxothiazolidin-5-ylidene)methyl)phenyl 5-cyclohexylpentanoate]
- IC50 (15-PGDH): 26.3 nM
- Increment % (A549 cells): 5.34%
- PGE2 concentration (A549 cells): 266.5484 pg/mL

Structure (SMILES): O=C(O)c1ccccc1.O=C1NC(=O)/C(=C/c2ccc(OC(=O)c3ccccc3)c(Br)c2)S1 [Compound 26, (Z)-2-bromo-4-((2,4-dioxothiazolidin-5-ylidene)methyl)phenylbenzoate]
- IC50 (15-PGDH): 25.4 nM
- Increment % (A549 cells): −11.12%
- PGE2 concentration (A549 cells): 175.2752 pg/mL

Structure (SMILES): O=C(Cc1ccccc1)Oc1ccc(/C=C2\SC(=O)NC2=O)cc1Br [Compound 27, (Z)-2-bromo-4-((2,4-dioxothiazolidin-5-ylidene)methyl)phenyl 2-phenylacetate]
- IC50 (15-PGDH): 40.6 nM
- Increment % (A549 cells): 99.65%
- PGE2 concentration (A549 cells): 393.7184 pg/mL

Structure (SMILES): O=C(CCc1ccccc1)Oc1ccc(/C=C2\SC(=O)NC2=O)cc1Br [Compound 28, (Z)-2-bromo-4-((2,4-dioxothiazolidin-5-ylidene)methyl)phenyl 3-phenylpropanoate]
- IC50 (15-PGDH): 28.4 nM
- Increment % (A549 cells): 190.32%
- PGE2 concentration (A549 cells): 572.5235 pg/mL

Structure (SMILES): O=C(CCCc1ccccc1)Oc1ccc(/C=C2\SC(=O)NC2=O)cc1Br [Compound 29, (Z)-2-bromo-4-((2,4-dioxothiazolidin-5-ylidene)methyl)phenyl 4-phenylbutanoate]
- IC50 (15-PGDH): 14.5 nM
- Increment % (A549 cells): 367.81%
- PGE2 concentration (A549 cells): 922.5414 pg/mL

Structure (SMILES): O=C(CCCCc1ccccc1)Oc1ccc(/C=C2\SC(=O)NC2=O)cc1Br [Compound 30, (Z)-2-bromo-4-((2,4-dioxothiazolidin-5-ylidene)methyl)phenyl 5-phenylpentanoate]
- IC50 (15-PGDH): 23.5 nM
- Increment % (A549 cells): 42.35%
- PGE2 concentration (A549 cells): 280.7203 pg/mL

Structure (SMILES): COc1cc(/C=C2\SC(=O)NC2=O)ccc1OC(=O)C1CC1 [Compound 31, (Z)-4-((2,4-dioxothiazolidin-5-ylidene)methyl)-2-methoxyphenyl cyclopropanecarboxylate]
- IC50 (15-PGDH): 1100 nM
- Increment % (A549 cells): 1.13%
- PGE2 concentration (A549 cells): 199.4327 pg/mL

Structure (SMILES): COc1cc(/C=C2\SC(=O)NC2=O)ccc1OC(=O)C1CCC1 [Compound 32, (Z)-4-((2,4-dioxothiazolidin-5-ylidene)methyl)-2-methoxyphenyl cyclobutanecarboxylate]
- IC50 (15-PGDH): 1120 nM
- Increment % (A549 cells): 60.62%
- PGE2 concentration (A549 cells): 316.7495 pg/mL

Structure (SMILES): COc1cc(/C=C2\SC(=O)NC2=O)ccc1OC(=O)C1CCCC1 [Compound 33, (Z)-4-((2,4-dioxothiazolidin-5-ylidene)methyl)-2-methoxyphenyl cyclopentanecarboxylate]
- IC50 (15-PGDH): 494 nM
- Increment % (A549 cells): −2.32%
- PGE2 concentration (A549 cells): 192.6292 pg/mL

Structure (SMILES): COc1cc(/C=C2\SC(=O)NC2=O)ccc1OC(=O)CC1CCCC1 [Compound 34, (Z)-4-((2,4-dioxothiazolidin-5-ylidene)methyl)-2-methoxyphenyl 2-cyclopentylacetate]
- IC50 (15-PGDH): 60.2 nM
- Increment % (A549 cells): −70.77%
- PGE2 concentration (A549 cells): 57.64 pg/mL

Structure (SMILES): COc1cc(/C=C2\SC(=O)NC2=O)ccc1OC(=O)CCC1CCCC1 [Compound 35, (Z)-4-((2,4-dioxothiazolidin-5-ylidene)methyl)-2-methoxyphenyl 3-cyclopentylpropanoate]
- IC50 (15-PGDH): 23.4 nM
- Increment % (A549 cells): 130.79%
- PGE2 concentration (A549 cells): 455.1278 pg/mL

Structure (SMILES): COc1cc(/C=C2\SC(=O)NC2=O)ccc1OC(=O)C1CCCCC1 [Compound 36, (Z)-4-((2,4-dioxothiazolidin-5-ylidene)methyl)-2-methoxyphenyl cyclohexanecarboxylate]
- IC50 (15-PGDH): 242 nM
- Increment % (A549 cells): 101.32%
- PGE2 concentration (A549 cells): 408.196 pg/mL

Structure (SMILES): COc1cc(/C=C2\SC(=O)NC2=O)ccc1OC(=O)CC1CCCCC1 [Compound 37, (Z)-4-((2,4-dioxothiazolidin-5-ylidene)methyl)-2-methoxyphenyl 2-cyclohexylacetate]
- IC50 (15-PGDH): 27.8 nM
- Increment % (A549 cells): 88.85%
- PGE2 concentration (A549 cells): 382.9119 pg/mL

Structure (SMILES): COc1cc(/C=C2\SC(=O)NC2=O)ccc1OC(=O)CCCC1CCCCC1 [Compound 39, (Z)-4-((2,4-dioxothiazolidin-5-ylidene)methyl)-2-methoxyphenyl 4-cyclohexylbutanoate]
- IC50 (15-PGDH): 17.5 nM
- Increment % (A549 cells): 220.24%
- PGE2 concentration (A549 cells): 649.318 pg/mL

Structure (SMILES): COc1cc(/C=C2\SC(=O)NC2=O)ccc1OC(=O)CCCCC1CCCCC1 [Compound 40, (Z)-4-((2,4-dioxothiazolidin-5-ylidene)methyl)-2-methoxyphenyl 5-cyclohexylpentanoate]
- IC50 (15-PGDH): 28.2 nM
- Increment % (A549 cells): 7.88%
- PGE2 concentration (A549 cells): 218.7373 pg/mL

Structure (SMILES): COc1cc(/C=C2\SC(=O)NC2=O)ccc1OC(=O)c1ccccc1.O=C(O)c1ccccc1 [Compound 41, (Z)-4-((2,4-dioxothiazolidin-5-ylidene)methyl)-2-methoxyphenyl benzoate]
- IC50 (15-PGDH): 151 nM
- Increment % (A549 cells): −88.34%
- PGE2 concentration (A549 cells): 23.64 pg/mL

Structure (SMILES): COc1cc(/C=C2\SC(=O)NC2=O)ccc1OC(=O)Cc1ccccc1 [Compound 42, (Z)-4-((2,4-dioxothiazolidin-5-ylidene)methyl)-2-methoxyphenyl 2-phenylacetate]
- IC50 (15-PGDH): 42.2 nM
- Increment % (A549 cells): 97.64%
- PGE2 concentration (A549 cells): 400.7345 pg/mL
